Assay results published in patent US8853258B2, “C-linked hydroxamic acid derivatives useful as antibacterial agents” (Pfizer Inc., priority 2009, dated 2014).
≈ marks a conversion by molar mass, not a printed value. Where two headings read alike, the source gives them in different places.

Legend:
[1] = biological target: Pseudomonas aeruginosa LpxC enzyme (Pseudomonas aeruginosa (strain ATCC 15692 / DSM 22644 / CIP 104116 / JCM 14847 / LMG 12228 / 1C / PRS 101 / PAO1), UniProt P47205); assay: IC50 Assay, LpxC Enzyme from P. aeruginosa (PA LpxC Enzyme IC50); assay type: biochemical
How it was run: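 Product formation quantified by RapidFire HTMS after a 1 h enzyme reaction quenched with 1N HCl.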

[2] = test system: Acinetobacter baumanii/haemolyticus: Multidrug-resistant clinical isolate (AB-3167); assay: MIC determination (CLSI), AB-3167; assay type: cell-based; conditions: for AB-3167 MIC: Acinetobacter baumanii/haemolyticus AB-3167; for MIC: Acinetobacter baumannii, Table 3, read-out: AB-3167 MIC
How it was run: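 Multidrug-resistant clinical isolate AB-3167 (A. baumannii/haemolyticus) tested for minimum inhibitory concentration following CLSI dilution susceptibility standards M7-A7 and M100-S18.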

[3] = test system: Escherichia coli EC-1: VOGEL, mouse virulent; assay: MIC determination (CLSI), EC-1; assay type: cell-based; conditions: for EC-1 MIC: Escherichia coli EC-1; for MIC: Escherichia coli, read-out: EC-1 MIC
How it was run: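 E. coli Vogel, a mouse-virulent strain (EC-1), was tested. MICs were set by dilution susceptibility testing per CLSI standards M7-A7/M100-S18.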

[4] = test system: Klebsiella pneumoniae: Ciprofloxacin-resistant isolate, ESBL, clinical isolate (KP-3700); assay: MIC determination (CLSI), KP-3700; assay type: cell-based
How it was run: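 Strain KP-3700, a clinical isolate producing extended-spectrum β-lactamases and resistant to ciprofloxacin, was tested. Minimum inhibitory concentrations determined via CLSI dilution methodology (M7-A7; M100-S18).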

[5] = test system: Pseudomonas aeruginosa UI-18: Wild-type (PA-7); assay: MIC determination (CLSI), PA-7; assay type: cell-based; conditions: for PA-7 MIC: Pseudomonas aeruginosa UI-18 (PA-7); for MIC: Pseudomonas aeruginosa, Table 3, read-out: PA-7 MIC
How it was run: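 Wild-type P. aeruginosa UI-18 tested for minimum inhibitory concentration. Broth/agar dilution following CLSI standards (M7-A7, M100-S18).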

[6] = P. aeruginosa LpxC enzyme, read-out: PA LpxC enzyeme IC50
[7] = Table 3, read-out: PA LpxC enzyeme IC^50

Compound: C[C@@](CCc1ccc(-c2cnc3cc[nH]c3c2)cc1)(C(=O)NO)S(C)(=O)=O [Example 211]
- IC50 [1, 6]: 11.1 nM
- AB-3167 MIC [2]: ≧64 mg/L
- EC-1 MIC [3]: ≧64 mg/L
- KP-3700 MIC [4]: ≧64 mg/L
- PA-7 MIC [5]: 32 µg/mL

Compound: COc1ccc(-c2ccc(CC[C@](C)(C(=O)NO)S(C)(=O)=O)cc2)cn1 [Example 212]
- IC50 [1, 6]: 0.237 nM
- AB-3167 MIC [2]: ≧64 mg/L
- EC-1 MIC [3]: 4 µg/mL
- KP-3700 MIC [4]: 16 µg/mL
- PA-7 MIC [5]: 1 µg/mL

Compound: COc1ccc(-c2ccc(CCC(C)(C(=O)NO)S(C)(=O)=O)cc2F)cn1 (centres unmarked) [Example 213]
- IC50 [1, 6]: 0.518 nM
- AB-3167 MIC [2]: ≧64 mg/L
- EC-1 MIC [3]: 2 µg/mL
- KP-3700 MIC [4]: 8 µg/mL
- PA-7 MIC [5]: 2 µg/mL

Compound: C[C@@](CCc1ccc(-c2ccc3c(c2)OCO3)cc1)(C(=O)NO)S(C)(=O)=O [Example 215]
- IC50 [1, 6]: 0.0842 nM
- AB-3167 MIC [2]: 16 µg/mL
- EC-1 MIC [3]: 0.5 µg/mL
- KP-3700 MIC [4]: 2 µg/mL
- PA-7 MIC [5]: 0.5 µg/mL

Compound: C[C@@](CCc1ccc(-c2ccc(C(=O)N3CCC[C@@H]3CO)cc2)cc1)(C(=O)NO)S(C)(=O)=O [Example 216]
- IC50 [1, 6]: 4.02 nM
- AB-3167 MIC [2]: ≧64 mg/L
- EC-1 MIC [3]: 32 µg/mL
- KP-3700 MIC [4]: ≧64 mg/L
- PA-7 MIC [5]: 32 µg/mL

Compound: CC(C)(O)C(=O)c1ccc(-c2ccc(CC[C@](C)(C(=O)NO)S(C)(=O)=O)cc2)cc1 [Example 217]
- IC50 [1, 6]: 0.278 nM
- AB-3167 MIC [2]: ≧64 mg/L
- EC-1 MIC [3]: 0.5 µg/mL
- KP-3700 MIC [4]: 4 µg/mL
- PA-7 MIC [5]: 4 µg/mL

Compound: C[C@@](CCc1ccc(-c2cc3ccccc3[nH]2)cc1)(C(=O)NO)S(C)(=O)=O [Example 218]
- IC50 [1, 6]: 0.034 nM
- AB-3167 MIC [2]: 32 µg/mL
- EC-1 MIC [3]: 0.5 µg/mL
- KP-3700 MIC [4]: 2 µg/mL
- PA-7 MIC [5]: 0.5 µg/mL

Compound: COc1ccc(-c2ccc(CCC(C)(C(=O)NO)S(C)(=O)=O)cn2)c(F)c1 (centres unmarked) [Example 219]
- IC50 [1, 6]: 1.21 nM
- AB-3167 MIC [2]: ≧64 mg/L
- EC-1 MIC [3]: 4 µg/mL
- KP-3700 MIC [4]: 16 µg/mL
- PA-7 MIC [5]: 8 µg/mL

Compound: C[C@@](CCc1ccc(-c2ccc(OCCCN3CCCCC3)cc2)cc1)(C(=O)NO)S(C)(=O)=O [Example 220]
- IC50 [1, 6]: 0.467 nM
- AB-3167 MIC [2]: ≧64 mg/L
- EC-1 MIC [3]: 8 µg/mL
- KP-3700 MIC [4]: 32 µg/mL
- PA-7 MIC [5]: 16 µg/mL

Compound: C[C@@](CCc1ccc(-c2ccc(OCC(=O)N3CCC(O)CC3)cc2)cc1)(C(=O)NO)S(C)(=O)=O [Example 221]
- IC50 [1, 6]: 0.533 nM
- AB-3167 MIC [2]: ≧64 mg/L
- EC-1 MIC [3]: 16 µg/mL
- KP-3700 MIC [4]: ≧64 mg/L
- PA-7 MIC [5]: 16 µg/mL

Compound: CC1(O)CCN(C(=O)COc2ccc(-c3ccc(CC[C@](C)(C(=O)NO)S(C)(=O)=O)cc3)cc2)CC1 [Example 222]
- IC50 [1, 6]: 0.841 nM
- AB-3167 MIC [2]: ≧64 mg/L
- EC-1 MIC [3]: 16 µg/mL
- KP-3700 MIC [4]: ≧64 mg/L
- PA-7 MIC [5]: 32 µg/mL

Compound: C[C@@](CCc1ccc(-c2ccc(OCC(=O)N3CC(O)C3)cc2)cc1)(C(=O)NO)S(C)(=O)=O [Example 223]
- IC50 [1, 6]: 0.507 nM
- AB-3167 MIC [2]: ≧64 mg/L
- EC-1 MIC [3]: 16 µg/mL
- KP-3700 MIC [4]: 32 µg/mL
- PA-7 MIC [5]: 8 µg/mL

Compound: CC(CCc1ccc(C2=CCCCC2)cc1)(C(=O)NO)S(C)(=O)=O (centres unmarked) [Example 224]
- IC50 [1, 6]: 0.441 nM
- AB-3167 MIC [2]: 4 µg/mL
- EC-1 MIC [3]: 4 µg/mL
- KP-3700 MIC [4]: 16 µg/mL
- PA-7 MIC [5]: 2 µg/mL

Compound: CC(CCc1ccc(C2=CCOCC2)cc1)(C(=O)NO)S(C)(=O)=O (centres unmarked) [Example 225]
- IC50 [1, 6]: 1.88 nM
- AB-3167 MIC [2]: ≧64 mg/L
- EC-1 MIC [3]: 32 µg/mL
- KP-3700 MIC [4]: ≧64 mg/L
- PA-7 MIC [5]: 4 µg/mL

Compound: CC(CCc1ccc(C2=CCSCC2)cc1)(C(=O)NO)S(C)(=O)=O (centres unmarked) [Example 226]
- IC50 [1, 6]: 0.32 nM
- AB-3167 MIC [2]: 16 µg/mL
- EC-1 MIC [3]: 8 µg/mL
- KP-3700 MIC [4]: 8 µg/mL
- PA-7 MIC [5]: 1 µg/mL

Compound: CC(CCc1ccc(C2=CCCC2)cc1)(C(=O)NO)S(C)(=O)=O (centres unmarked) [Example 227]
- IC50 [1, 6]: 11.4 nM
- AB-3167 MIC [2]: ≧64 mg/L
- EC-1 MIC [3]: ≧64 mg/L
- KP-3700 MIC [4]: ≧64 mg/L
- PA-7 MIC [5]: 16 µg/mL

Compound: CC(CCc1ccc(COc2ccc(F)cc2)cc1)(C(=O)NO)S(C)(=O)=O (centres unmarked) [Example 228]
- IC50 [1, 6]: 3.28 nM
- AB-3167 MIC [2]: 16 µg/mL
- EC-1 MIC [3]: 8 µg/mL
- KP-3700 MIC [4]: 16 µg/mL
- PA-7 MIC [5]: 8 µg/mL

Compound: CC(CCc1ccc(COc2cccc(F)c2)cc1)(C(=O)NO)S(C)(=O)=O (centres unmarked) [Example 229]
- IC50 [1, 6]: 3.24 nM
- AB-3167 MIC [2]: 16 µg/mL
- EC-1 MIC [3]: 8 µg/mL
- KP-3700 MIC [4]: 32 µg/mL
- PA-7 MIC [5]: 8 µg/mL

Compound: CC(CCc1ccc(OCc2ccccc2F)cc1)(C(=O)NO)S(C)(=O)=O (centres unmarked) [Example 242, 4-{4-[(2-fluorobenzyl)oxy]phenyl}-N-hydroxy-2-methyl-2-(methylsulfonyl)butanamide]
- IC50 [1, 7]: 0.655 nM
- MIC [2]: ≥ 64 µg/mL
- MIC [3]: 4 µg/mL (≈ 10.1 µM)
- KP-3700 MIC [4]: 8 µg/mL
- MIC [5]: ≥ 64 µg/mL

Compound: COc1cc(COc2ccc(CCC(C)(C(=O)NO)S(C)(=O)=O)cc2)cc(OC)c1 (centres unmarked) [Example 244, 4-{4-[(3,5-dimethoxybenzyl)oxy]phenyl}-N-hydroxy-2-methyl-2-(methylsulfonyl)butanamide]
- IC50 [1, 7]: 5 nM
- MIC [2]: ≥ 64 µg/mL
- MIC [3]: 4 µg/mL (≈ 9.14 µM)
- KP-3700 MIC [4]: 16 µg/mL
- MIC [5]: ≥ 64 µg/mL

Compound: CC(CCc1ccc(OCc2cccc(F)c2F)cc1)(C(=O)NO)S(C)(=O)=O (centres unmarked) [Example 247, 4-{4-[(2,3-difluorobenzyl)oxy]phenyl}-N-hydroxy-2-methyl-2-(methylsulfonyl)butanamide]
- IC50 [1, 7]: 0.325 nM
- MIC [2]: 16 µg/mL (≈ 38.7 µM)
- MIC [3]: 2 µg/mL (≈ 4.84 µM)
- KP-3700 MIC [4]: 16 µg/mL
- MIC [5]: 2 µg/mL (≈ 4.84 µM)

Compound: Cc1oc(-c2ccccc2F)nc1COc1ccc(CCC(C)(C(=O)NO)S(C)(=O)=O)cc1 (centres unmarked) [Example 251, 4-(4-{[2-(2-fluorophenyl)-5-methyl-1,3-oxazol-4-yl]methoxy}phenyl)-N-hydroxy-2-methyl-2-(methylsulfonyl)butanamide]
- IC50 [1, 7]: 21.6 nM
- MIC [2]: ≥ 64 µg/mL
- MIC [3]: 32 µg/mL (≈ 67.2 µM)
- KP-3700 MIC [4]: ≧64 mg/L
- MIC [5]: ≥ 64 µg/mL

Compound: CC(CCc1ccc(OCc2c(F)cccc2F)cc1)(C(=O)NO)S(C)(=O)=O (centres unmarked) [Example 258, 4-{4-[(2,6-difluorobenzyl)oxy]phenyl}-N-hydroxy-2-methyl-2-(methylsulfonyl)butanamide]
- IC50 [1, 7]: 0.599 nM
- MIC [2]: 32 µg/mL (≈ 77.4 µM)
- MIC [3]: 2 µg/mL (≈ 4.84 µM)
- KP-3700 MIC [4]: 16 µg/mL
- MIC [5]: 2 µg/mL (≈ 4.84 µM)

Compound: Cc1ccccc1COc1ccc(CCC(C)(C(=O)NO)S(C)(=O)=O)cc1 (centres unmarked) [Example 260, N-hydroxy-2-methyl-4-{4-[(2-methylbenzyl)oxy]phenyl}-2-(methylsulfonyl)butanamide]
- IC50 [1, 7]: 1.45 nM
- MIC [2]: 32 µg/mL (≈ 81.7 µM)
- MIC [3]: 16 µg/mL (≈ 40.9 µM)
- KP-3700 MIC [4]: ≧64 mg/L
- MIC [5]: 8 µg/mL (≈ 20.4 µM)

Compound: CC(CCc1ccc(OCC2CCOCC2)cc1)(C(=O)NO)S(C)(=O)=O (centres unmarked) [Example 261, N-hydroxy-2-methyl-2-(methylsulfonyl)-4-[4-(tetrahydro-2H-pyran-4-ylmethoxy)phenyl]butanamide]
- IC50 [1, 7]: 4.93 nM
- MIC [2]: ≥ 64 µg/mL
- MIC [3]: ≥ 64 µg/mL
- KP-3700 MIC [4]: ≧64 mg/L
- MIC [5]: 32 µg/mL (≈ 83 µM)
